Publication PMC10974018, “The Development and Characterization of Novel Ionic Liquids Based on Mono- and Dicarboxylates with Meglumine for Drug Solubilizers and Skin Permeation Enhancers” (Pharmaceutics, 2024)

What was measured:
[1] = cited from earlier work
[2] = cited from earlier work; remark: listed apart in the source
[3] = Solubility capability of drug-in-IL (organic acid/MGM ionic liquids), confirmed by PXRD; format: physicochemical; details: for upper limit of drug dissolution in IL: in GA-MGM 1:1, PXRD
Procedure: […] Next, 1, 10, 20… w/w% of each drug and water and ethanol as the solvent was added to the MGM and organic acid solution, and then the preparation was sonicated to be completely dissolved. The resulting solution was evaporated using a thermostat at 65 °C and then vacuum-dried at 40 °C for 24 h.
The solubilization power of ILs is attributed to a range of interactions, such as ionic, van der Waals, π–π, and hydrogen bonding. […] To determine the solubility capability of the ILs, drug-in-IL complexes were prepared. Subsequently, these complexes were analyzed via PXRD to confirm dissolution. PXRD is a technique used to validate the crystalline structure of a drug or excipients in a preparation. The absence of a drug’s crystal form in PXRD indicates the complete solubilization of the drug in the IL.

[4] = as above; format: physicochemical; details: for upper limit of drug dissolution in IL: PXRD

| Compound | pKa [1] | Log P [2] | also measured |
| --- | --- | --- | --- |
| Oc1ncnc2[nH]ncc12 [Allopurinol (ALP), Allopurinol] | 9.34 | −1.80 |  |
| O=C(O)CCCCCCCC(=O)O [Azelaic acid (AA), Azelaic acid] | 4.55 | 1.57 |  |
| C[C@H](CS)C(=O)N1CCC[C@H]1C(=O)O [Captopril (CPP), Captopril] | 3.64 |  | upper limit of drug dissolution in IL [3]: ≥ 20%; upper limit of drug dissolution in IL ([4]; in AA-MGM 1:2): greater than 10%; upper limit of drug dissolution in IL ([4]; in TA-MGM 1:2): 80% |
| COc1ccccc1OCCNCC(O)COc1cccc2[nH]c3ccccc3c12 (centres unmarked) [Carvedilol (CVD), Carvedilol] |  | 4.19 |  |
| COC1=C(OC)C(=O)C(C/C=C(\C)CC/C=C(\C)CC/C=C(\C)CC/C=C(\C)CC/C=C(\C)CC/C=C(\C)CC/C=C(\C)CC/C=C(\C)CC/C=C(\C)CCC=C(C)C)=C(C)C1=O [Coenzyme Q10 (CoQ10), Coenzyme Q10] | 10.9 | 9.94 | upper limit of drug dissolution in IL ([4]; in AA-MGM 1:2): greater than 10% |
| CC(C)N(CCC(C(N)=O)(c1ccccc1)c1ccccn1)C(C)C (centres unmarked) [Disopyramide (DPA), Disopyramide] |  |  | solubility in ILs ([3]; all ILs (TA/MGM, AA/MGM, GA/MGM, CPA/MGM)): 100% |
| CCOc1ccccc1C(N)=O [Ethenzamide (ETZ), Ethenzamide] | 13.7 | 1.02 |  |
| COc1cc(/C=C/C(=O)O)ccc1O [Ferulic acid (FA), Ferulic acid] | 4.58 |  |  |
| CC(C(=O)O)c1ccc(-c2ccccc2)c(F)c1 (centres unmarked) [Flurbiprofen (FRP), Flurbiprofen] | 3.78 |  | upper limit of drug dissolution in IL [3]: ≥ 20%; upper limit of drug dissolution in IL ([4]; in AA-MGM 1:2): greater than 10%; upper limit of drug dissolution in IL ([4]; in TA-MGM 1:2): 10% |
| CC(C)=CCC/C(C)=C/C(=O)O [Geranic acid (GA), Geranic acid] | 5.26 | 3.07 |  |
| O=[N+]([O-])O[C@@H]1CO[C@H]2[C@@H]1OC[C@@H]2O [Isosorbide mononitrate (ISMN), Isosorbide mononitrate] |  | −0.15 | upper limit of drug dissolution in IL [3]: ≥ 20%; dissolution of drug in IL by PXRD (drug-derived crystal peaks) ([4]; 5% and 10% drug in TA-MGM 1:2): cannot be completely dissolved; upper limit of drug dissolution in IL ([4]; in AA-MGM 1:2): greater than 10% |
| CNC[C@H](O)[C@@H](O)[C@H](O)[C@H](O)CO [Meglumine (MGM), Meglumine] | 9.52 |  |  |
| CC1COc2c(N3CCN(C)CC3)c(F)cc3c(=O)c(C(=O)O)cn1c23 (centres unmarked) [Ofloxacin (OFLX), Ofloxacin] |  | −0.48 | pKa1 [1]: 5.97; pKa2 [1]: 9.28 |
| C[C@@H]1O[C@@H](OC[C@H]2O[C@@H](Oc3c(-c4ccc(O)c(O)c4)oc4cc(O)cc(O)c4c3=O)[C@H](O)[C@@H](O)[C@@H]2O)[C@H](O)[C@H](O)[C@H]1O [Rutin] | 6.43 | −1.33 | upper limit of drug dissolution in IL [3]: ≥ 20%; upper limit of drug dissolution in IL ([4]; in AA-MGM 1:2): greater than 10% |
| O=C(O)C(O)C(O)C(=O)O (centres unmarked) [Tartaric acid (TA), Tartaric acid] |  | −1.8 |  |
| Curcumin [Curcumin (CCM)] | 8.09 |  |  |
| Minoxidil [Minoxidil (MXD)] | 4.61 | 1.24 |  |
